Results as given in patent US20090068290A1, “BIFEPRUNOX DOSES FOR TREATING SCHIZOPHRENIA” (priority 2006, published 2009).

Tests used:
[1] = Body weight, Clinical Study Three
Description: To assess the safety and tolerability of bifeprunox using physical examination, weight, waist circumference, vital signs (pulse rate and systolic/diastolic blood pressure [BP], and oral temperature), 12-lead electrocardiogram (ECG), clinical laboratory assessments (hematology, biochemistry including fasting insulin level, fasting glucose, fasting lipid profile, urinalysis, special laboratory assessments for prolactin, IGF-1, IGFBP-3, and thyroid function), need for anticholinergic treatment during double-blind treatment period, concomitant medication use, adverse event (AE) monitoring, and assessments of abnormal movement including the Simpson-Angus Scale (SAS), Barnes Akathisia Scale (BAS), and Abnormal Involuntary Movement Scale (AIMS).

[2] = system: adult subjects with schizophrenia; assay: PANSS negative subscale score, Clinical Study One; format: in vivo, human; settings: ITT; for PANSS Negative Subscale Score, Trt Effect (bifeprunox—placebo): ANCOVA
Method: There were five treatment groups in this study. […] Study medication was administered once daily. After Baseline measurements were performed, the titration phase was begun. Bifeprunox treated subjects were titrated up to 5 mg, 10 mg or 20 mg according to a standardized titration schedule (Day 1: 0.125 mg, Day 2: 0.25 mg, Day 3: 0.5 mg, Day 4: 1.0 mg, Day 5: 2.0 mg, Day 6: 5.0 mg, Day 7: 10.0 mg, Day 8: 20 mg). When the assigned dose was reached, subjects were maintained at that dose for the remainder of the six-week treatment period.
The change in the Positive and Negative Symptom Scale (PANSS) total score, from baseline to endpoint, was the primary outcome measure. Secondary efficacy measures included: PANSS positive, PANSS negative, PANSS general psychopathology (GPP) score, PANSS-derived Brief Psychiatric Rating Scale (BPRS) score, Clinical Global Impressions-Severity of Illness (CGI-S), CGI-Improvement (CGI-I) scores, and responder rates. Safety and tolerability evaluations included extrapyramidal symptoms (EPS), weight gain, lipid profile, and serum prolactin.

[3] = Bifeprunox 10 mg, Endpoint LOCF
[4] = Bifeprunox 20 mg, Endpoint LOCF

## O=c1[nH]c2cccc(N3CCN(Cc4cccc(-c5ccccc5)c4)CC3)c2o1 [Bifeprunox, 7-[4-([1,1′-biphenyl]-3-ylmethyl)-1-piperazinyl]-2(3H)-benzoxazolone]
[1]; Bifeprunox 30 mg
  Weight, Baseline Mean of subjects with Week 6 change: 172.6 lbs
  Weight, Baseline, Max: 358 lbs
  Weight, Baseline, Mean (SD): 179.1 (62.4) lbs
  Weight, Baseline, Median: 171 lbs
  Weight, Baseline, Min: 77 lbs
  Weight, Change from Baseline at Endpoint, Max: 39 lbs
  Weight, Change from Baseline at Endpoint, Mean (SD): −1.1 (7.4) lbs
  Weight, Change from Baseline at Endpoint, Median: 0 lbs
  Weight, Change from Baseline at Endpoint, Min: −22 lbs
  Weight, Change from Baseline at Week 6, Max: 39 lbs
  Weight, Change from Baseline at Week 6, Mean (SD): −1.0 (8.9) lbs
  Weight, Change from Baseline at Week 6, Median: −2 lbs
  Weight, Change from Baseline at Week 6, Min: −18 lbs
  incidence of markedly abnormal (≧7%) decrease in body weight: 5%
  incidence of markedly abnormal (≧7%) increase in body weight: 5%
  mean weight change at Endpoint: −1.1 lbs
[1]; bifeprunox 20 mg
  Weight, Baseline Mean of subjects with Endpoint change: 178.8 lbs
  Weight, Baseline Mean of subjects with Week 6 change: 171.9 lbs
  Weight, Baseline, Max: 393 lbs
  Weight, Baseline, Mean (SD): 180.6 (61.7) lbs
  Weight, Baseline, Median: 176 lbs
  Weight, Baseline, Min: 77 lbs
  Weight, Change from Baseline at Endpoint, Max: 26 lbs
  Weight, Change from Baseline at Endpoint, Mean (SD): −2.3 (7.3) lbs
  Weight, Change from Baseline at Endpoint, Median: −1 lbs
  Weight, Change from Baseline at Endpoint, Min: −34 lbs
  Weight, Change from Baseline at Week 6, Max: 26 lbs
  Weight, Change from Baseline at Week 6, Mean (SD): −3.3 (8.2) lbs
  Weight, Change from Baseline at Week 6, Median: −1 lbs
  Weight, Change from Baseline at Week 6, Min: −34 lbs
  incidence of markedly abnormal (≧7%) decrease in body weight: 6%
  incidence of markedly abnormal (≧7%) increase in body weight: 1%
  mean weight change at Endpoint: −2.3 lbs
[1]; bifeprunox 20, 30 mg, 6 weeks
  mean body weight (in words): Small decreases in mean body weight
[2]; Bifeprunox 5 mg, Endpoint LOCF
  Change from Baseline in PANSS Negative Subscale Score, Mean (S.D.): −2.2 (4.9)
  Change from Baseline in PANSS Negative Subscale Score, Median: −2
  PANSS Negative Subscale Score, Trt Effect (bifeprunox—placebo): −1.0
[2]; Bifeprunox 5 mg, Week 1, LOCF
  Change from Baseline in PANSS Negative Subscale Score, Mean (S.D.): −1.1 (3.9)
  Change from Baseline in PANSS Negative Subscale Score, Median: −1
[2]; Bifeprunox 5 mg, Week 2, LOCF
  Change from Baseline in PANSS Negative Subscale Score, Mean (S.D.): −1.8 (4.4)
  Change from Baseline in PANSS Negative Subscale Score, Median: −2
[2]; Bifeprunox 5 mg, Week 3, LOCF
  Change from Baseline in PANSS Negative Subscale Score, Mean (S.D.): −1.8 (4.7)
  Change from Baseline in PANSS Negative Subscale Score, Median: −2
[2]; Bifeprunox 5 mg, Week 4, LOCF
  Change from Baseline in PANSS Negative Subscale Score, Mean (S.D.): −2.0 (4.9)
  Change from Baseline in PANSS Negative Subscale Score, Median: −1
[2]; [3]
  Change from Baseline in PANSS Negative Subscale Score, Mean (S.D.): −1.7 (4.7)
  Change from Baseline in PANSS Negative Subscale Score, Median: −1
[2]; Bifeprunox 10 mg, Week 1, LOCF
  Change from Baseline in PANSS Negative Subscale Score, Mean (S.D.): −1.4 (3.4)
  Change from Baseline in PANSS Negative Subscale Score, Median: −1
[2]; Bifeprunox 10 mg, Week 2, LOCF
  Change from Baseline in PANSS Negative Subscale Score, Mean (S.D.): −1.5 (4.2)
  Change from Baseline in PANSS Negative Subscale Score, Median: −1
[2]; Bifeprunox 10 mg, Week 3, LOCF
  Change from Baseline in PANSS Negative Subscale Score, Mean (S.D.): −1.7 (5.0)
  Change from Baseline in PANSS Negative Subscale Score, Median: −1
[2]; Bifeprunox 10 mg, Week 4, LOCF
  Change from Baseline in PANSS Negative Subscale Score, Mean (S.D.): −1.5 (4.6)
  Change from Baseline in PANSS Negative Subscale Score, Median: −1
[2]; [4]
  Change from Baseline in PANSS Negative Subscale Score, Mean (S.D.): −2.6 (5.3)
  Change from Baseline in PANSS Negative Subscale Score, Median: −2
  PANSS Negative Subscale Score, Trt Effect (bifeprunox—placebo): −1.4
[2]; Bifeprunox 20 mg, Week 1, LOCF
  Change from Baseline in PANSS Negative Subscale Score, Mean (S.D.): −1.6 (3.4)
  Change from Baseline in PANSS Negative Subscale Score, Median: −1
[2]; Bifeprunox 20 mg, Week 2, LOCF
  Change from Baseline in PANSS Negative Subscale Score, Mean (S.D.): −2.0 (4.2)
  Change from Baseline in PANSS Negative Subscale Score, Median: −1
[2]; Bifeprunox 20 mg, Week 3, LOCF
  Change from Baseline in PANSS Negative Subscale Score, Mean (S.D.): −2.7 (4.4)
[2]; Bifeprunox 20 mg, Week 4, LOCF
  Change from Baseline in PANSS Negative Subscale Score, Mean (S.D.): −2.5 (4.6)
  Change from Baseline in PANSS Negative Subscale Score, Median: −2
